Here are results for 15 compounds from patent US20130217672A1, “(+)-3-HYDROXYMORPHINAN-BASED POLYCYCLE DERIVATIVES” (GREEN CROSS CORPORATION, priority 2010, published 2013).

The nature of data set [1]: Cell cytotoxicity test: HT22 cells co-treated with 5 mM glutamate and compound, MTT readout. The data set is classed as cell-based, mouse. The conditions noted are these: mouse, HT22 cells (mouse hippocampal neuron). The procedure: (§1) HT22 cells (mouse hippocampal neuron, Salk Institute and KRIBB) were placed in a 96-well plate 3×10^3 cells/well for 16 h before treatment. Five millimolar glutamate and the inventive compounds were co-treated and incubated for 24 h in growth media (DMEM with 10% FBS and 1% penicillin streptomycin). MTT (3-(4,5-dimethylthazol-2-yl)-2,5-diphenyltetrazolium bromide, Sigma®) was treated for 4 h and detected with a plate reader at a wavelength=450 nm [Da-Qing, et. al., Anti-oxidant and anti-inflammatory activities of macelignan in murine hippocampal cell line and primary culture of rat microglia cells, BBRC, 2005, 331, 1264-1269].
(§2) The EC50 values were statistically analyzed using Prism® (GraphPad Software Inc., San Diego, Calif.). The results of the cell cytotoxicity test are summarized in Table 1 (EC50: neuroprotective effect against glutamate toxicity, and CC50: cytotoxicity of compound).

The test system of data set [2] is HT22 cells (mouse hippocampal neuron). Described as above. The conditions noted are these: Mus musculus, HT-22, five millimolar glutamate co-treated, 24 h, read-out: EC50: neuroprotective effect against glutamate toxicity. The data set is classed as cell-based. The procedure:
as §1, §2

For data set [3], the system named is dopamine (DA) neurons in substantia nigra pars compacta. The conditions noted are these: MPTP model, daily injections; cited from earlier work.

Each structure is given as a SMILES string. Structures can show the parent of a compound that is named as a salt.

By CC50 is commonly meant the concentration that lowers cell viability or growth by half. What is called EC50 is the concentration giving half of the maximal effect. As for `Oc1cc2c(c3nccnc13)C[C@@H]1NCC[C@]23CCCC[C@H]13` [Example 9, (6S,6aS,10aS)-6,6a,7,8,9,10-Hexahydro-5H-6,10a-(epiminoethano)naphtho[2,1-f]quinoxalin-12-ol TFA salt], in data set [1], the CC50 at 24 h came to 44.8 µM. Further, the EC50 in data set [2] worked out at 16300 nM.
On the same counts, the results for `CC(=O)N1CCOc2c(O)cc3c(c21)C[C@@H]1NCC[C@]32CCCC[C@H]12` [Example 3, 1-((6S,6aS,10aS)-12-Hydroxy-2,3,6,6a,7,8,9,10-octahydro-6,10a-(epiminoethano)phenanthro[2,1-b][1,4]oxazin-4(5H)-yl)ethanone TFA salt] are more than 100 µM and 8500 nM.
For `Oc1cc2c(c3c1NC(c1ccccc1)CO3)C[C@@H]1NCC[C@]23CCCC[C@H]13` (stereo partly drawn) [Example 8, (6S,6aS,10aS)-2-Phenyl-1,2,3,5,6,6a,7,8,9,10-decahydro-6,10a-(epiminoethano)phenanthro[1,2-b][1,4]oxazin-12-ol TFA salt] the same measures were 8.1 µM and 457 nM.
On to `Oc1cc2c(c3nc4ccccc4nc13)C[C@@H]1NCC[C@]23CCCC[C@H]13` [Example 10, (4aS,14S,14aS)-2,3,4,13,14,14a-Hexahydro-1H-14,4a-(epiminoethano)naphtho[2,1-a]phenazin-6-ol TFA salt], for which, in data set [1], the CC50 at 24 h was determined as 10.7 µM. In addition, the EC50 in data set [2] came out at 354 nM.
For the compound `Oc1cccc2c1[nH]c1c(O)cc3c(c12)C[C@@H]1NCC[C@]32CCCC[C@H]12` [Example 11, (4aS,13S,13aS)-1,2,3,4,7,12,13,13a-Octahydro-13,4a-(epiminoethano)naphtho[1,2-c]carbazole-6,8-diol TFA salt], the CC50 at 24 h in data set [1] stood at 44 µM. Moreover, in data set [2], the concentration giving a half-maximal response (EC50) came out at 303 nM.
Consider `Oc1cc2c(c3c1OCCN3)C[C@@H]1NCC[C@]23CCCC[C@H]13` [Example 1, (6S,6aS,10aS)-2,3,4,5,6,6a,7,8,9,10-Decahydro-6,10a-(epiminoethano)phenanthro[2,1-b][1,4]oxazin-12-ol TFA salt], for which the CC50 at 24 h in data set [1] was more than 100 µM. For the same compound, in data set [2], the EC50 was determined as 26900 nM.
Turning to `Oc1ccc2c(c1)[C@@]13CCCC[C@H]1[C@@H](C2)NCC3` [(+)-3-HM, (+)-3-hydroxymorphinan], in data set [3], the “DA levels in striatum” value was “restored” and the “DA neurons in substantia nigra pars compacta” value was “protected”.
As to `Oc1cc2c(c3c1OCCCN3)C[C@@H]1NCC[C@]23CCCC[C@H]13` [Example 2, (7S,7aS,11aS)-3,4,5,6,7,7a,8,9,10,11-Decahydro-2H-7,11a-(epiminoethano)phenanthro[2,1-b][1,4]oxazepin-13-ol TFA salt], the CC50 at 24 h in data set [1] was more than 100 µM. Moreover, the EC50 in data set [2] came to 27700 nM.
For `CC1COc2c3c(cc(O)c2N1)[C@]12CCCC[C@@H]1[C@H](C3)NCC2` (stereo partly drawn) [Example 6, (6S,6aS,10aS)-2-Methyl-1,2,3,5,6,6a,7,8,9,10-decahydro-6,10a-(epiminoethano)phenanthro[1,2-b][1,4]oxazin-12-ol TFA salt] the same measures were more than 100 µM and 314 nM.
On the same counts, the results for `Cc1ccc2[nH]c3c(O)cc4c(c3c2c1)C[C@@H]1NCC[C@]42CCCC[C@H]12` [Example 14, (4aS,13S,13aS)-10-Methyl-1,2,3,4,7,12,13,13a-octahydro-13,4a-(epiminoethano)naphtho[1,2-c]carbazol-6-ol TFA salt] are 5.7 µM and 908 nM.
On the same counts, the results for `Oc1ccc2[nH]c3c(O)cc4c(c3c2c1)C[C@@H]1NCC[C@]42CCCC[C@H]12` [Example 13, (4aS,13S,13aS)-1,2,3,4,7,12,13,13a-Octahydro-13,4a-(epiminoethano)naphtho[1,2-c]carbazole-6,10-diol TFA salt] are more than 100 µM and 1110 nM.
For `Oc1cc2c(c3c1OCCO3)C[C@@H]1NCC[C@]23CCCC[C@H]13` [Example 5, (6S,6aS,10aS)-3,5,6,6a,7,8,9,10-Octahydro-2H-6,10a-(epiminoethano)phenanthro[1,2-b][1,4]dioxin-12-ol TFA salt], in data set [1], the CC50 at 24 h was more than 100 µM. For the same compound, in data set [2], the EC50 came to 4970 nM.
On the same counts, the results for `CN1CCOc2c(O)cc3c(c21)C[C@@H]1NCC[C@]32CCCC[C@H]12` [Example 4, (6S,6aS,10aS)-4-Methyl-2,3,4,5,6,6a,7,8,9,10-decahydro-6,10a-(epiminoethano)phenanthro[2,1-b][1,4]oxazin-12-ol TFA salt] are more than 100 µM and 9600 nM.
For `Oc1cc2c(c3c1NCCO3)C[C@@H]1NCC[C@]23CCCC[C@H]13` [Example 7, (6S,6aS,10aS)-1,2,3,5,6,6a,7,8,9,10-Decahydro-6,10a-(epiminoethano)phenanthro[1,2-b][1,4]oxazin-12-ol TFA salt] the same measures were 13.5 µM and 650 nM.
Consider `Oc1cc2c(c3c1[nH]c1ccccc13)C[C@@H]1NCC[C@]23CCCC[C@H]13` [Example 12, (4aS,13S,13aS)-1,2,3,4,7,12,13,13a-Octahydro-13,4a-(epiminoethano)naphtho[1,2-c]carbazol-6-ol TFA salt], for which the CC50 at 24 h in data set [1] is 49.8 µM. The EC50 in data set [2] stood at 710 nM.
